Measured values taken from PubChem BioAssay (NCI).
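Interpolation was linear, between the two tested concentrations surrounding the appropriate level; five concentrations were tested over 48 hours in 96-well plates. At the GI50, growth is halved. TGI marks complete inhibition of growth.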

What was measured:
Test in all cases: inhibition of tumour cell growth, NCI panel, 48 h
[1] = system: SNB-75 CNS
[2] = system: HCT-15 colon
[3] = system: SF-295 CNS
[4] = system: CAKI-1 renal
[5] = system: SW-620 colon
[6] = system: MALME-3M melanoma
[7] = system: A498 renal
[8] = system: COLO 205 colon
[9] = system: HOP-62 NSCLC
[10] = system: UACC-257 melanoma

Structure (SMILES)	TGI [1] [µM]	TGI [2] [µM]	TGI [3] [µM]	TGI [4] [µM]	TGI [5] [µM]	TGI [6] [µM]	TGI [7] [µM]	TGI [8] [µM]	TGI [9] [µM]	TGI [10] [µM]	GI50 [1] [µM]	GI50 [2] [µM]	GI50 [4] [µM]	GI50 [5] [µM]	GI50 [6] [µM]	GI50 [7] [µM]	GI50 [10] [µM]	GI50 [3] [µM]	GI50 [8] [µM]	GI50 [9] [µM]
COc1ccc(C2=[S+]C(c3ccccc3)(c3ccccc3)c3ccccc32)cc1	91.1	54.6	88.8	> 100	> 100	46.1	44.6	31.3	79.3	46.9	–	–	–	–	–	–	–	–	–	–
O=C1C(CO)=C[C@H](O)[C@H]2O[C@@H]12	561	278	177	514	284	319	519	209	> 612	387	–	–	–	–	–	–	–	–	–	–
c1cc2c3c(c1)c1cc4c(cc1c[n+]3CC2)OCO4	8.09	> 225	13.1	120	109	3.88	14.9	19.9	15.4	13.5	–	–	–	–	–	–	–	–	–	–
c1ccc2c(c1)c1ccccc1n2Cn1c2ccccc2c2ccccc21	> 100	> 100	> 100	> 100	> 100	> 100	> 100	–	> 100	> 100	–	–	–	–	–	–	–	–	–	–
COc1cccc2c1C(=O)c1c(O)c3c(c(O)c1C2=O)C[C@@](O)(C(=O)COC(=O)c1ccccc1)C[C@@H]3OC1CC(N)C(O)C(C)O1 (some centres not stated)	0.738	1.76	–	2.11	0.253	0.652	0.261	–	–	1.27	0.0762	0.451	0.701	0.0448	0.136	0.0771	0.262	–	–	–
Cc1ccc(Cl)cc1N=NC(=O)NNc1cc(Cl)ccc1C	36.3	95.4	> 100	45.1	–	64.6	48.8	41	23.6	–	–	–	–	–	–	–	–	–	–	–
O=C(NN1C(=O)C(Cl)C1c1cccc([N+](=O)[O-])c1)c1ccccc1O (configuration not stated)	> 100	–	> 100	–	> 100	> 100	–	> 100	> 100	> 100	–	–	–	–	–	–	–	–	–	–
COc1cc(-c2ccc(N=Nc3ccc4c(S(=O)(=O)O)cc(S(=O)(=O)O)c(N)c4c3O)c(OC)c2)ccc1N=Nc1ccc2c(S(=O)(=O)O)cc(S(=O)(=O)O)c(N)c2c1O	> 100	> 100	> 100	–	> 100	> 100	> 100	> 100	> 100	> 100	–	–	–	–	–	–	–	–	–	–
O=c1nc2ccc([N+](=O)[O-])cc2[n+]([O-])[nH]1	> 100	> 100	> 100	> 100	> 100	> 100	> 100	> 100	> 100	> 100	–	–	–	–	–	–	–	–	–	–
CCOc1cc(/C=C/C(=O)C(C(=O)/C=C/c2ccc(OC(=O)CNc3nc4ccccc4[nH]3)c(OCC)c2)C(=O)CNc2nc3ccccc3[nH]2)ccc1OC(=O)CNc1nc2ccccc2[nH]1	27.9	7.87	22.7	–	2.95	5.93	3.87	4.61	> 100	8.73	3.73	2.53	–	1.6	1.75	1.68	2.85	7.86	2.08	4.23
c1ccc2c(c1)NCc1cc3ccccc3nc1O2	> 100	> 100	> 100	> 100	> 100	> 100	> 100	> 100	> 100	> 100	–	–	–	–	–	–	–	–	–	–
C/C(=N\NC(=O)c1ccc(Cl)cc1)c1nc2ncccc2[nH]1	17.9	> 100	> 100	> 100	> 100	48.9	> 100	96.3	> 100	79.9	–	–	–	–	–	–	–	–	–	–
O=C(N/N=C\c1cccc2ccccc12)Nc1ccccc1	> 100	> 100	> 100	> 100	> 100	> 100	> 100	> 100	> 100	> 100	–	–	–	–	–	–	–	–	–	–
O=C1CCC[C@H]2O[C@@H](COC(=O)c3ccccc3)C[C@H]2O1	> 100	> 100	> 100	> 100	> 100	–	> 100	> 100	> 100	> 100	–	–	–	–	–	–	–	–	–	–
Cc1cc(N/N=C/c2nc(-c3ccc(Cl)cc3)oc2C)c2cc(Br)ccc2n1	–	4.42	26.6	4.71	4.23	4.23	26.5	10.6	3.94	15	–	1.79	2.04	1.87	1.91	10.4	3.49	12.4	2.86	1.87
